From US20050245434A1, “Oxygenated dibenzo-alpha-pyrone chromoproteins” (priority 2004, published 2005)
Converted amounts (≈) assume the structure as drawn.

Tested on: Fe-ADP-Ascorbate induced lipid peroxidation (LPO) in rat brain
Test: Inhibition of Fe-ADP-ascorbate induced lipid peroxidation (LPO) in rat brain homogenate
Format: biochemical, Albino rats (Sprague Dawley strain)
Conditions: 37° C., 30 minutes
Method: Inhibition of Fe-ADP-Ascorbate Induced Lipid Peroxidation (LPO) in Rat Brain by DBP and DCPs
Albino rats (Sprague Dawley strain) were sacrificed by cervical dislocation and decapitation. Brains were dissected out and 10% w/v homogenate was prepared in 0.15 M KCl. The brain homogenate was centrifuged at 1500 rpm for 10 minutes and the supernatant was used for the study. The incubation mixture contained in a final volume of 1 ml., brain homogenate (500 μl), distilled water (100 μl) or test compounds dissolved in solvents at different concentrations (10 to 100 μg/ml of the final volume). Peroxidation was initiated by adding FeCl3 (100 μM), ADP (1 mM) and ascorbate (100 μM) to give the final concentration stated. After incubating at 37° C. for 30 minutes, the reaction was stopped by adding acetic acid buffer (1.5 ml, pH 3.5) and thiobarbituric acid solution (1.5 ml, pH 7.4) to 1 ml of LPO mixture. The reaction mixture was heated at 85° C. for 30 minutes, cooled, centrifuged (2000 rpm for 10 minutes) and the absorbance of the supernatant was measured at 532 nm. IC50 values were calculated in the usual way by plotting the concentration of the test compounds versus percent inhibition of LPO.

SMILES	IC50 (effect on LPO) [µg/mL]
CC(=O)Oc1c(C)c(C)c2c(c1C)CCC(C)(CCC[C@H](C)CCC[C@H](C)CCCC(C)C)O2 (stereo partly drawn) [Vitamin E acetate]	56
O=c1oc2cc(O)ccc2c2ccc(O)cc12 [3,8-Dihydroxydibenzo-alpha-pyrone]	30 (≈ 131 µM)
O=C1O[C@H]([C@@H](O)CO)C(O)=C1O [Ascorbic acid]	70 (≈ 397 µM)
